SMILES	melting point
O=C1CC(c2cccc(-c3ccccn3)c2)=Nc2cc(C(F)(F)F)c(Cl)cc2N1 [Example 107, 8-Chloro-4-(3-pyridin-2-yl-phenyl)-7-trifluoromethyl-1,3-dihydro-benzo[b][1,4]diazepin-2-one]	208 °C
Cc1cc(-c2cccc(C3=Nc4cc(CO)c(C(F)(F)F)cc4NC(=O)C3)c2)ccn1 [Example 261, 7-Hydroxymethyl-4-[3-(2-methyl-pyridin-4-yl)-phenyl]-8-trifluoromethyl-1,3-dihydro-benzo[b][1,4]diazepin-2-one]	218 °C
CCc1cnc(C)cc1-c1cccc(C2=Nc3ccc(C(F)(F)F)cc3NC(=O)C2)c1 [Example 149, 4-[3-(5-Ethyl-2-methyl-pyridin-4-yl)-phenyl]-8-trifluoromethyl-1,3-dihydro benzo[b][1,4]diazepin-2-one]	183 °C
Cc1ccc(-c2cccc(C3=Nc4ccc(Cl)cc4NC(=O)C3)c2)cn1 [Example 31, 8-Chloro-4-[3-(6-methyl-pyridin-3-yl)-phenyl]-1,3-dihydro-benzo[b][1,4]diazepin-2-one]	230 °C
Cc1cc2c(cc1Cl)NC(=O)CC(c1cccc(-c3ccnc(CO)c3)c1)=N2 [Example 282, 8-Chloro-4-[3-(2-hydroxymethyl-pyridin-4-yl)-phenyl]-7-methyl-1,3-dihydro-benzo[b][1,4]diazepin-2-one]	234 °C
CCCN(C)c1cc2c(cc1C(F)(F)F)NC(=O)CC(c1cccc(-c3cnccn3)c1)=N2 [Example 102, 7-(Methyl-propyl-amino)-4-(3-pyrazin-2-yl-phenyl)-8-trifluoromethyl-1,3-dihydro-benzo[b][1,4]diazepin-2-one]	201 °C
O=C1CC(c2cccc(-c3cccnc3)c2)=Nc2ccccc2N1 [Example 34, 4-(3-Pyridin-3-yl-phenyl)-1,3-dihydro-benzo[b][1,4]diazepin-2-one]	210 to 211 °C
CCOc1cc2c(cc1C(F)(F)F)NC(=O)CC(c1cccc(-c3ccnc(C(C)C)c3)c1)=N2 [Example 276, 4-[3-(2-Isopropyl-pyridin-4-yl)-phenyl]-7-ethoxy-8-trifluoromethyl-1,3-dihydro-benzo[b][1,4]diazepin-2-one]	217 °C
Cc1cncc(-c2cccc(C3=Nc4cc(C)c(Cl)cc4NC(=O)C3)c2)n1 [Example 131, 8-Chloro-7-methyl-4-[3-(6-methyl-pyrazin-2-yl)-phenyl]-1,3-dihydro-benzo[b][1,4]diazepin-2-one]	235 °C
Cc1cc2c(cc1Cl)NC(=O)CC(c1cccc(-c3ccncn3)c1)=N2 [Example 297, 8-Chloro-7-methyl-4-(3-pyrimidin-4-yl-phenyl)-1,3-dihydro-benzo[b][1,4]diazepin-2-one]	242 to 247 °C
CN(C)c1cc2c(cc1-c1ccccc1F)NC(=O)CC(c1cccc(-c3ccncc3)c1)=N2 [Example 39, 7-Dimethylamino-8-(2-fluoro-phenyl)-4-(3-pyridin-4-yl-phenyl)-1,3-dihydro-benzo[b][1,4]diazepin-2-one]	236 to 237 °C
CN(C)c1ccc(-c2cccc(C3=Nc4cc(OCC(F)(F)F)c(C(F)(F)F)cc4NC(=O)C3)c2)cn1 [Example 218, 4-[3-(6-Dimethylamino-pyridin-3-yl)-phenyl]-7-(2,2,2-trifluoro-ethoxy)-8-trifluoromethyl-1,3-dihydro-benzo[b][1,4]diazepin-2-one]	240 to 241 °C
Cc1cc(-c2cccc(C3=Nc4cc(C)c(Cl)cc4NC(=O)C3)c2)c(C)cn1 [Example 134, 8-Chloro-4-[3-(2,5-dimethyl-pyridin-4-yl)-phenyl]-7-methyl-1,3-dihydro-benzo[b][1,4]diazepin-2-one]	208 °C
CCOc1cc2c(cc1C(F)(F)F)NC(=O)CC(c1cccc(-c3ccnc(C)c3C)c1)=N2 [Example 146, 4-[3-(2,3-Dimethyl-pyridin-4-yl)-phenyl]-7-ethoxy-8-trifluoromethyl-1,3-dihydro-benzo[b][1,4]diazepin-2-one]	217 °C
O=C1CC(c2cccc(-c3ccncc3)c2)=Nc2ccc(F)cc2N1 [Example 8, 8-Fluoro-4-(3-pyridin-4-yl-phenyl)-1,3-dihydro-benzo[b][1,4]diazepin-2-one]	190 to 192 °C
O=C1CC(c2cccc(-c3ccnc(C(F)(F)F)c3)c2)=Nc2cc(OCC(F)(F)F)c(C(F)(F)F)cc2N1 [Example 268, 7-(2,2,2-Trifluoro-ethoxy)-8-trifluoromethyl-4-[3-(2-trifluoromethyl-pyridin-4-yl)-phenyl]-1,3-dihydro-benzo[b][1,4]diazepin-2-one]	220 °C
Cc1ncccc1-c1cccc(C2=Nc3ccc(C(F)(F)F)cc3NC(=O)C2)c1 [Example 17, 4-[3-(2-Methyl-pyridin-3-yl)-phenyl]-8-trifluoromethyl-1,3-dihydro-benzo[b][1,4]diazepin-2-one]	219 to 220 °C

Next, values leading:

melting point	SMILES
192 to 193 °C	CCOc1cc2c(cc1C(F)(F)F)NC(=O)CC(c1cccc(-c3ccnc(C4CCCC4)c3)c1)=N2 [Example 353, 4-[3-(2-Cyclopentyl-pyridin-4-yl)-phenyl]-7-ethoxy-8-trifluoromethyl-1,3-dihydro-benzo[b][1,4]diazepin-2-one]
249 °C	CCOc1cc2c(cc1C(F)(F)F)NC(=O)CC(c1ccnc(-c3cccnc3)c1)=N2 [Example 393, 4-[2,3′]Bipyridinyl-4-yl-7-ethoxy-8-trifluoromethyl-1,3-dihydro-benzo[b][1,4]diazepin-2-one]
234 to 237 °C	O=C1CC(c2cccc(-c3ccncn3)c2)=Nc2cc(Cl)c(Cl)cc2N1 [Example 300, 7,8-Dichloro-4-(3-pyrimidin-4-yl-phenyl)-1,3-dihydro-benzo[b][1,4]diazepin-2-one]
171 °C	Cc1cc2c(cc1Cl)NC(=O)CC(c1cccc(-c3ccnc(CNC4CC4)c3)c1)=N2 [Example 378, 8-Chloro-4-[3-(2-cyclopropylaminomethyl-pyridin-4-yl)-phenyl]-7-methyl-1,3-dihydro-benzo[b][1,4]diazepin-2-one]
250 to 253 °C	Cc1cc(-c2cccc(C3=Nc4cc(N(C)C)c(C(F)(F)F)cc4NC(=O)C3)c2)nc(N)n1 [Example 317, 4-[3-(2-Amino-6-methyl-pyrimidin-4-yl)-phenyl]-7-dimethylamino-8-trifluoromethyl-1,3-dihydro-benzo[b][1,4]diazepin-2-one]
224 °C	O=C1CC(c2cccc(-c3ccnc(N4CCCC4)c3)c2)=Nc2ccc(C(F)(F)F)cc2N1 [Example 388, 4-[3-(2-Pyrrolidin-1-yl-pyridin-4-yl)-phenyl]-8-trifluoromethyl-1,3-dihydro-benzo[b][1,4]diazepin-2-one]
223 to 227 °C	Cc1cc2c(cc1Cl)NC(=O)CC(c1cccc(-c3ncccn3)c1)=N2 [Example 335, 8-Chloro-7-methyl-4-(3-pyrimidin-2-yl-phenyl)-1,3-dihydro-benzo[b][1,4]diazepin-2-one]
210 °C	O=C1CC(c2cccc(-c3cccnc3)c2)=Nc2cc(C(F)(F)F)c(C(F)(F)F)cc2N1 [Example 416, 4-(3-Pyridin-3-yl-phenyl)-7,8-bis-trifluoromethyl-1,3-dihydro-benzo[b][1,4]diazepin-2-one]
